Data taken from PubChem BioAssay (NCI).
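All cell lines were grown in 96-well plates and treated with compound for 48 hours. TGI: concentration producing complete growth inhibition.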

Columns and labels:
Test in all cases: growth of human tumour cells (NCI), 48 h
RPMI-8226 leukemia = system: RPMI-8226 leukemia
RXF 393 renal = system: RXF 393 renal
NCI-H460 lung = system: NCI-H460 lung
DU-145 prostate = system: DU-145 prostate
786-0 renal = system: 786-0 renal
NCI-H23 lung = system: NCI-H23 lung
OVCAR-4 ovarian = system: OVCAR-4 ovarian
HT29 colon = system: HT29 colon
HOP-62 NSCLC = system: HOP-62 NSCLC
SK-MEL-2 melanoma = system: SK-MEL-2 melanoma
SN12C renal = system: SN12C renal
OVCAR-5 ovarian = system: OVCAR-5 ovarian

| SMILES | TGI (RPMI-8226 leukemia) [µM] | TGI (RXF 393 renal) [µM] | TGI (NCI-H460 lung) [µM] | TGI (DU-145 prostate) [µM] | TGI (786-0 renal) [µM] | TGI (NCI-H23 lung) [µM] | TGI (OVCAR-4 ovarian) [µM] | TGI (HT29 colon) [µM] | TGI (HOP-62 NSCLC) [µM] | TGI (SK-MEL-2 melanoma) [µM] | TGI (SN12C renal) [µM] | TGI (OVCAR-5 ovarian) [µM] |
| --- | --- | --- | --- | --- | --- | --- | --- | --- | --- | --- | --- | --- |
| O=C(c1ccccc1)c1c(C(F)(F)F)n([O-])c2ccccc2[n+]1=O | 3.34 | 3.83 | 5.72 | 4.54 | > 100 | 3.71 | 1.11 | 2.23 | > 100 | 3.43 |  |  |
| C#CCNC(Cc1cnc[nH]1)C(=O)O (stereo not drawn) | > 100 | > 100 | > 100 | > 100 | > 100 |  | > 100 | > 100 | > 100 | > 100 | > 100 | > 100 |
| Cn1c(=O)c2c(-c3ccccc3)onc2n(C)c1=O | 57.6 | > 100 | > 100 |  | 86.5 | 41.6 | > 100 | > 100 | > 100 | 81.8 | > 100 | > 100 |
| COc1cc(C2C3=C(CCC3=O)Oc3cc4c(cc32)OCO4)cc(OC)c1OC (stereo not drawn) |  | > 100 | > 100 |  |  | > 100 | > 100 | > 100 | 0.742 |  | > 100 | > 100 |
| CN(C)CCOC(=O)COc1ccc(Cl)cc1 |  | > 100 | > 100 | > 100 | > 100 | > 100 | > 100 | > 100 | > 100 | > 100 | > 100 | > 100 |
| Cc1csc2c1C(=O)c1ccsc1C2=O | 20.1 | 11.8 | 3.46 | 3.29 | 16 | 2.5 | 3.34 | 7.33 |  | 4.51 | 4.83 | 3.46 |
| N#CCCC1C(C#N)C2CC1C1C3C=CC(C3)C21 (stereo not drawn) | > 100 | > 100 |  | > 100 | > 100 | > 100 | > 100 | > 100 |  | > 100 |  | > 100 |
| O=c1[nH]c(=O)n(C2OC(COP(=O)(O)OP(=O)(O)O)C(O)C2O)cc1F (stereo not drawn) | > 50 | 13.8 | 12.7 |  | 7.09 | > 50 | > 26.3 | > 50 | 29.6 | > 50 | > 50 | > 44.1 |
| CCOC(=O)c1cc2c(OC(C)=O)ccc(OC(C)=O)c2s1 |  | 3.42 | 22.2 | 17.1 | 6.24 | 5.51 | 31.3 | 10.7 | 23.9 | 7.72 | 5.11 | 18.9 |
| CN1CCn2c(Br)ccc2C1=O | > 100 | > 100 | > 100 |  | > 100 | > 100 | > 100 | > 100 | > 100 | > 100 | > 100 |  |
